Results reported in article PMC3871529, “At a Supra-Physiological Concentration, Human Sexual Hormones Act as Quorum-Sensing Inhibitors” (PLoS ONE, 2013).
Where two headings read alike, the source gives them in different places.

Legend:
[1] = test system: Agrobacterium biosensor cells; assay: Minimal bactericidal concentration (MBC); format: cell-based, Agrobacterium tumefaciens; settings: 99.9% reduction of 10^5 CFU/ml after 36 h at 30°C
Method: Aside from the effect of QSI on QS regulation, the toxicity of these compounds was tested on bacterial cells by measuring two parameters: the minimal inhibitory concentration (MIC) and minimal bactericidal concentration (MBC). MIC, which is the lowest concentration of QSI (µg/ml) inhibiting any visible culture after 36 h of incubation at 30°C, was estimated by culturing 10^5 CFU/ml of the Agrobacterium biosensor cells in the presence of different concentrations of the QSI. MBC, which is the lowest concentration of QSI (µg/ml) that results in a 99.9% reduction of the initial bacterial population (10^5 CFU/ml) after 36 h of incubation at 30°C in the presence of different concentrations of QSI, was estimated by plating 100 µL of the Agrobacterium cultures on agar LBm plates. After an incubation of 48 h at 30°C, CFU were counted and the MBC values were calculated.

[2] = test system: QS-signal accumulation in P. aeruginosa; assay: AHL (C4-HSL, OC12-HSL) quantification in P. aeruginosa cultures by mass spectrometry; format: cell-based, Pseudomonas aeruginosa; settings: QSI at 0.5 mg/ml, 18-hour
Method: Figure 5 QSIs modulated QS-signal accumulation in P. aeruginosa. Growth kinetics (n = 6) of P. aeruginosa was measured (OD600) in the presence of the QSIs (estradiol, estrone, estriol, hordenine and 4-NPO) at 0.5 mg/ml using DMSO as a negative control. Cell counts were assessed (CFU/ml) at 8- and 18-hour, and C4-HSL and OC12-HSL concentration (µM) were determined in the bacterial cultures at 18-hour. Statistically different values (Student's t test with α = 0.01) are noted by asterisks.
(§1) QS gene transcription in P. aeruginosa PAO1 was monitored using PAO1 strains carrying various gene promoters fused to a lacZ reporter gene, as described in Vandeputte et al., 2010 and Table 1. PAO1 reporter strains were prepared according to Vandeputte et al.. Briefly, 18-hours-old liquid cultures (50 µl) were diluted in order to obtain a starting OD600 nm comprised between 0.02 and 0.03 in fresh LB medium supplemented with 50 mM MOPS pH 7.0 (1 ml), carbenicillin (300 µg/ml) and 10 µl of the QSIs to be tested (OD were measured using a SpectraMax M2 device from Molecular Devices). Test and control QSIs were diluted in 100% DMSO (resulting after addition to the growth medium in a 1% final concentration of DMSO). Cultures were incubated for 18 hours at 37°C with agitation. After incubation, cell densities were assessed spectrophotometrically (OD600 nm) and β-galactosidase assays were performed using the substrate o-nitrophenyl-β-D-galactopyranoside as described previously, [29]. Promoterless-lacZ fusions were used as controls. AHLs were quantified as described in Vandeputte et al.. All tests were performed in quintuplicates and three biological repetitions. The statistical significance of each test was evaluated by conducting Student's t tests and two-way ANOVA combined with the Tukey post-analysis test using the GraphPad Prism software and p values≤0.01 were considered significant.

[3] = test system: QS-regulated genes lasI, lasR, lasB, rhlI, rhlR, rhlA in P. aeruginosa PAO1; assay: QS-regulated gene expression, lacZ transcriptional fusions in PAO1; format: cell-based, Pseudomonas aeruginosa; settings: for expression of six QS-regulated genes (lasI, lasR, lasB, rhlI, rhlR, rhlA): QSI at 0.5 mg/ml, 18 hours at 37°C, β-galactosidase; for inhibition of expression of the regulators lasR and rhlR (rank) / impact on rhlI expression relative to naringenin, estradiol and estrone: QSIs at 0.5 mg/ml; for impact on rhlI expression relative to naringenin, estradiol and estrone: naringenin at 1 mg/ml
Method: Figure 6 QSIs modulated QS-regulated genes in P. aeruginosa. The β-galactosidase (b-Gal) activity in Miller unit (MU) of the transcriptional fusions lasI-lacZ (A), lasR-lacZ (B), lasB-lacZ (C), rhlI-lacZ (D), rhlR-lacZ (E), rhlA-lacZ (F), and aecA-lacZ(G) were measured in the presence of estradiol, estrone, estriol, hordenine at 0.5 mg/ml, and naringenin at 1 mg/ml as a positive control and DMSO as a negative control. The statistical significance of each test (n = 5 and three biological replicates) was evaluated by Student's t test (i.e. each test was compared with the DMSO condition). Asterisks indicate statistically different data (p value of ≤0.01).
as §1

Row | Molecule | MBC ([1]; Agrobacterium, read-out: MBC) [µg/mL] | C4-HSL concentration in cell cultures [2] | OC12-HSL concentration in cell cultures [2] | expression of six QS-regulated genes (lasI, lasR, lasB, rhlI, rhlR, rhlA) [3] | inhibition of expression of the regulators lasR and rhlR (rank) [3] | impact on rhlI expression relative to naringenin, estradiol and estrone [3] | MBC [1] [µg/mL]
1 | CN(C)CCc1ccc(O)cc1 [Compound 3499, hordenine] | > 100 | reduction | reduction | decreased | the most | lower impact | 
2 | 3-Hydroxy-13-methyl-6,7,8,9,11,12,13,14,15,17-decahydro-cyclopenta[a] phenanthren-16-one [Compound 729, reference compound] |  | reduction | reduction | decreased |  |  | >100
3 | C[C@]12CC[C@@H]3c4ccc(O)cc4CC[C@H]3[C@@H]1C[C@@H](O)[C@@H]2O [Estriol, estriol] | > 100 | reduction | reduction | decreased | the least | lower impact | 
